From PMC5123075, “Structural and antitrypanosomal data of different carbasones of piperitone” (Data in Brief, 2016)

Legend:
[1] = system: Chinese Hamster Ovary (CHO) cells; test: cytotoxicity assay on CHO cells (Stevigny et al.); format: cell-based; conditions: CHO cells
Text: (§1) The Antitrypanosomal activity, toxicity test, and cytotoxicity assay were done according to Räz et al., Sleet and Brendel and Stevigny et al., respectively.

[2] = cytotoxicity assay on CHO cells (Stevigny et al.); format: cell-based, Chinese Hamster; conditions: Chinese Hamster Ovary (CHO) cells; Chinese Hamster Ovary cells; mean±SD of three experiments
Text: as §1

[3] = cytotoxicity assay on WI38 cells (Stevigny et al.); format: cell-based, human; conditions: WI38 non-cancer fibroblast cells; human normal fibroblast cells; mean±SD of three experiments
Text: as §1

[4] = system: human non cancer fibroblast cell line (WI38); test: cytotoxicity assay on WI38 cells (Stevigny et al.); format: cell-based; conditions: for Selectivity index WI38/CHO: IC50 (WI38) / IC50 (CHO), selectivity between the two tested cell lines; for Cytotoxicity WI38, Activity (verbal grade): WI38 cells
Text: as §1

[5] = toxicity test against Artemia salina Leach larvae (Sleet and Brendel); format: in vivo; conditions: Artemia salina Leach (larvae), in vivo; concentration providing 50% death of larvae; mean±SD of three experiments
Text: as §1

[6] = system: Artemia salina (Leach) larvae; test: as above; format: in vivo; conditions: larvae
Text: as §1

[7] = system: Trypanosoma brucei brucei (Tbb); test: in vitro antitrypanosomal activity (Alamar Blue method of Räz et al.); format: cell-based; conditions: for Selectivity index CHO/tbb: IC50 (CHO) / IC50 (Tbb); for Selectivity index WI38/tbb: IC50 (WI38) / IC50 (Tbb); for Selectivity index LC50/tbb: LC50 (A. salina) / IC50 (Tbb); for Antitrypanosomal activity, activity (verbal grade): Tbb; for Antitrypanosomal activity, activity (verbal grade) / IC50: in vitro; for IC50: Trypanosoma brucei, concentration providing 50% death of parasites, mean±SD of three experiments
Text: as §1

Row | Structure (SMILES) | Cytotoxicity CHO, Activity (verbal grade) [1] | IC50 [2] | IC50 [3] | Selectivity index WI38/CHO [4] | Cytotoxicity WI38, Activity (verbal grade) [4] | LC50 [5] | Toxicity against A. salina Leach, Activity (verbal grade) [6] | Selectivity index CHO/tbb [7] | Selectivity index WI38/tbb [7] | Selectivity index LC50/tbb [7] | Antitrypanosomal activity, activity (verbal grade) [7] | IC50 [7]
1 | CC1=C/C(=N\NC(N)=O)C(C(C)C)CC1 (stereo not drawn) [compound 1, piperitone semicarbazone] | Not toxic | 214 ± 7.56 µM | 481 ± 6.69 µM | 2.25 | Not cytotoxic | 373 ± 6.6 µM | Not toxic | 0.45 | 1.01 | 0.78 | low | 478 ± 7.19 µM
2 | CC1=C/C(=N\NC(N)=S)C(C(C)C)CC1 (stereo not drawn) [compound 2, piperitone thiosemicarbazone] | Cytotoxic | 21.2 ± 1.37 µM | 143 ± 4.89 µM | 6.78 | Not cytotoxic | 86.7 ± 2.33 µM | Not toxic | 0.28 | 1.92 | 1.16 | moderate | 74.6 ± 4.44 µM
3 | CC1=C/C(=N\NC(=O)Nc2ccccc2)C(C(C)C)CC1 (stereo not drawn) [compound 3, piperitone 4-phenyl semicarbazone] | Moderate | 65.9 ± 4.8 µM | 81 ± 9.15 µM | 1.23 | Not cytotoxic | 85.5 ± 2.28 µM | Not toxic |  |  |  | trypanocidal | 8.63 ± 0.81 µM
4 | CC1=C/C(=N\NC(=S)Nc2ccccc2)C(C(C)C)CC1 (stereo not drawn) [compound 4, piperitone 4-phenyl thiosemicarbazone] | Moderate | 65.3 ± 4.02 µM | 134 ± 5.45 µM | 2.05 | Not cytotoxic | 32.2 ± 1.66 µM | Toxic | 6.00 | 12.30 | 2.96 | trypanocidal | 10.9 ± 2.52 µM
